Results from PMC9785397, “Exploiting Conserved Quorum Sensing Signals in Streptococcus mutans and Streptococcus pneumoniae” (Microorganisms, 2022).
≈ marks a conversion by molar mass, not a printed value.

Key:
[1] = tested on: S. mutans bacteriocin production against P. aeruginosa; assay: Bacteriocin overlay assay, S. mutans spotted on P. aeruginosa; assay type: cell-based, Streptococcus mutans; conditions: CSP1 20 μM, microaerophilic, experimental control
Protocol: (§1) During the formation of complex biofilm such as dental plaque, the ability of S. mutans to compete with other commensal species determines the success of the cariogenesis process. S. mutans uses antibacterial peptides, namely, bacteriocins, to overcome and subvert the composition of dental microbiota. We investigated the production of bacteriocins using the overlay assay. Overnight cultures of S. mitis, S. oralis, S. sanguinis, P. aeruginosa, F. nucleatum, or P. gingivalis were diluted 1:100 in BHI or TS broth and incubated at 37 °C until they reached an OD620 of 0.3. Cultures were added with agar (BD Difco^TM Agar) at the final concentration of 1.5% w/v and transferred in plates. Overnight cultures of S. mutans were diluted 1:100 in BHI and added with peptides (20 μM) or the vehicle with or without CSP1. Culture media were supplemented with agar to reach the final concentration of 0.7% w/v. The solutions were spotted on the surface of agar plates prepared as described above. […]
(§2) Spots (10 for each experimental group) were acquired and analyzed using NIH Image J software (version 1.53t August 2022, https://imagej.nih.gov/ij/index.html; accessed on 7 September 2022). The appearance of a clear area on the plate (bacterial growth inhibition) was evaluated as indicative of bacteriocin activity. The diameters of the area were measured in a blinded fashion.

[2] = tested on: vicK gene; assay: qRT-PCR, vicK gene expression in biofilm; assay type: cell-based, Streptococcus mutans; conditions: CSP1 20 μM vs vehicle, 16 h, qPCR
Protocol: (§3) S. mutans was cultured in BHI supplemented with peptides or the vehicle. Cultures were centrifuged, and total RNA was isolated and purified from the bacterial pellets using the GRS Total RNA Kit—Bacteria (GK16.0100; GRISP Research Solution, Porto, Portugal), following the manufacturer’s instructions. Purified RNA was subjected to DNase I treatment to remove contaminating DNA. The RNA yield and purity were assessed by measuring the absorbance, and only samples with a ratio of 260/280 nm in the 1.8–2 range were used. cDNA was generated using the cDNA RT kit with an RNAse inhibitor (Applied Biosystems; Monza, Milan). Quantitative PCR (qRT-PCR) was performed using SYBR green mixture (iScript One Step RT-PCR kit; Bio-Rad, Segrate, Milan) to determine the transcript levels of genes using the oligonucleotides listed in Table 3. The gyrA gene served as the housekeeping gene.

[3] = tested on: comE gene; assay: qRT-PCR, comE gene expression; assay type: cell-based, Streptococcus mutans; conditions: CSP1 20 μM, planktonic, 8 h, qPCR
Protocol: as §3

[4] = tested on: S. mutans; assay: microbe, parasite or virus in culture; assay type: cell-based, Streptococcus mutans; conditions: peptides 0–50 μM, 16 h, 37 °C, microaerophilic, A620 nm, three separate experiments
Text: (§4) Streptococcus mutans Clarke (strain designation NCTC 10449), Pseudomonas aeruginosa (Schroeter) Migula (strain designation PAO1), Fusobacterium nucleatum, subspecies nucleatum (strain VPI 4355), and Porphyromonas gingivalis (strain 2561) were purchased from ATCC (LGC Standards Srl, Milan, Italy). Streptococcus mitis, Streptococcus oralis, and Streptococcus sanguinis were obtained from clinical isolates and characterized by morphological, biochemical, and molecular typing. S. mutans, S. mitis, S. oralis, and S. sanguinis were maintained in Brain Heart Infusion (BHI) broth or agar under microaerophilic conditions. P. aeruginosa was maintained in trypticase soy (TS) agar or broth. F. nucleatum was maintained in TS agar or broth with defibrinated sheep blood under anaerobic conditions. P. gingivalis was maintained in ATCC Medium 2722 supplemented with TS broth or agar under anaerobic conditions. Before the experiments, bacterial cultures were inoculated in fresh media (dilution 1:100) and grown for 16 h at 37 °C.
(§5) The antimicrobial activities of the tested peptides were assessed through the determination of the minimum inhibitory concentration (MIC) standardized by the Clinical and Laboratory Standards Institute. Bacterial inocula were diluted in 10 mL of MHB […]. The concentration of the bacteria was adjusted to 0.5 McFarland standard, and the bacteria were dispensed in 96-well microtiter plates (final bacterial concentration: 1 × 10^4 CFU/well). Peptides were dissolved in sterile water (stock concentration: 2 mM) and added at final concentrations ranging from 0 to 50 µM. Plates were incubated at 37 °C for 16 h. At the end of incubation, bacterial growth was recorded using a microplate reader (Varioskan Lux Reader; Thermo Fisher Scientific, Milan, Italy) by quantifying the adsorption at 620 nm. Cultures were then opportunely diluted and seeded on agar plates. Bacterial cultures inoculated with the highest final concentration of the vehicle (sterile water) or chlorhexidine hydrochloride salt (CHX, concentration range: 0.05 to 500 μg/mL; Merck, Milan, Italy) were included as controls in each test. Experiments were performed in triplicate.

[5] = tested on: S. oralis; assay: microbe, parasite or virus in culture; assay type: cell-based, Streptococcus oralis; conditions: peptides 0–50 μM, 16 h, 37 °C, microaerophilic, A620 nm, three separate experiments
Text: as §4, §5

[6] = tested on: comC gene; assay: qRT-PCR, comC gene expression; assay type: cell-based, Streptococcus mutans; conditions: CSP1 20 μM, 8 h, qPCR
Protocol: as §3

[7] = tested on: P. gingivalis; assay: microbe, parasite or virus in culture; assay type: cell-based, Porphyromonas gingivalis; conditions: peptides 0–50 μM, 16 h, 37 °C, anaerobic, A620 nm, three separate experiments
Text: as §4, §5

[8] = tested on: S. mutans bacteriocin production against S. mitis; assay: Bacteriocin overlay assay, S. mutans spotted on S. mitis; assay type: cell-based, Streptococcus mutans; conditions: CSP1 20 μM alone vs vehicle, 16 h, 37 °C, microaerophilic
Protocol: (§6) During the formation of complex biofilm such as dental plaque, the ability of S. mutans to compete with other commensal species determines the success of the cariogenesis process. S. mutans uses antibacterial peptides, namely, bacteriocins, to overcome and subvert the composition of dental microbiota. We investigated the production of bacteriocins using the overlay assay. Overnight cultures of S. mitis, S. oralis, S. sanguinis, P. aeruginosa, F. nucleatum, or P. gingivalis were diluted 1:100 in BHI or TS broth and incubated at 37 °C until they reached an OD620 of 0.3. Cultures were added with agar (BD Difco^TM Agar) at the final concentration of 1.5% w/v and transferred in plates. Overnight cultures of S. mutans were diluted 1:100 in BHI and added with peptides (20 μM) or the vehicle with or without CSP1. Culture media were supplemented with agar to reach the final concentration of 0.7% w/v. The solutions were spotted on the surface of agar plates prepared as described above. The plates were kept on the benchtop for 30 min, allowing the agar containing S. mutans to solidify, and then incubated at 37 °C for 16 h under microaerophilic or anaerobic conditions, as required.
as §2

[9] = tested on: S. mutans bacteriocin production against P. gingivalis; assay: Bacteriocin overlay assay, S. mutans spotted on P. gingivalis; assay type: cell-based, Streptococcus mutans; conditions: CSP1 20 μM, 16 h, anaerobic
Protocol: as §1, §2

[10] = tested on: comD gene; assay: qRT-PCR, comD gene expression; assay type: cell-based, Streptococcus mutans; conditions: CSP1 20 μM, planktonic, 8 h, qPCR
Protocol: as §3

[11] = tested on: S. mutans; assay: Bacterial growth kinetics; assay type: cell-based, Streptococcus mutans
Protocol: Peptides were further evaluated for their potential effect in altering the growth kinetics in S. mutans. Overnight bacterial cultures were collected, centrifuged, and suspended in fresh BHI broth at 10^8 CFU/mL. Bacteria were dispensed in sterile 96-well microtiter plates at a final concentration of 1 × 10^6 CFU/100 µL and cultured with peptides or the vehicle at 37 °C for 36 h. Bacterial growth kinetics were monitored by measuring the optical density at 620 nm at different time points using Varioskan Lux Reader (Thermo Fisher Scientific).

[12] = tested on: S. mitis; assay: microbe, parasite or virus in culture; assay type: cell-based, Streptococcus mitis; conditions: peptides 0–50 μM, 16 h, 37 °C, microaerophilic, A620 nm, three separate experiments
Text: as §4, §5

[13] = tested on: S. mutans bacteriocin production against S. oralis; assay: Bacteriocin overlay assay, S. mutans spotted on S. oralis; assay type: cell-based, Streptococcus mutans; conditions: CSP1 20 μM alone vs vehicle, 16 h, 37 °C, microaerophilic
Protocol: as §6, §2

[14] = tested on: F. nucleatum; assay: microbe, parasite or virus in culture; assay type: cell-based, Fusobacterium nucleatum; conditions: peptides 0–50 μM, 16 h, 37 °C, anaerobic, A620 nm, three separate experiments
Text: as §4, §5

CC[C@H](C)[C@H](NC(=O)[C@H](Cc1ccccc1)NC(=O)[C@H](CC(=O)O)NC(=O)[C@H](CCCNC(=N)N)NC(=O)[C@H](Cc1ccccc1)NC(=O)[C@H](Cc1ccccc1)NC(=O)[C@H](CCCCN)NC(=O)[C@H](CO)NC(=O)[C@H](CC(C)C)NC(=O)[C@H](CCCNC(=N)N)NC(=O)[C@H](CCSC)NC(=O)[C@@H](N)CCC(=O)O)C(=O)N[C@@H](CC(C)C)C(=O)N[C@@H](CCC(N)=O)C(=O)N[C@@H](CCCNC(=N)N)C(=O)N[C@@H](CCCCN)C(=O)N[C@@H](CCCCN)C(=O)O [CSP1]
Replication of P. aeruginosa in presence of S. mutans stimulated with peptide [1]: not affected | Expression of vicK in S. mutans biofilm [2]: significantly increased | Expression of comE in S. mutans [3]: increased the expression | Minimum inhibitory concentration (MIC), S. mutans [4]: 30 µM (≈ 67.3 µg/mL) | Minimum inhibitory concentration (MIC), S. oralis [5]: 25 µM (≈ 56.1 µg/mL) | Expression of comC in S. mutans [6]: no effects | Minimum inhibitory concentration (MIC), P. gingivalis [7]: >50 µM | Growth inhibition of co-cultured S. mitis by S. mutans stimulated with peptide (diameter of clear area) [8]: significantly inhibited the growth | Growth inhibition of P. gingivalis by S. mutans stimulated with peptide [9]: no effects | Expression of comD in S. mutans [10]: increased the expression | Effect on the growth (growth kinetics) of S. mutans ([11]; 20 µM peptide, BHI broth, 37 °C, monitored 36 h, A620 nm, three experiments): no significant effects | Colony counting of S. mutans after incubation with the peptide ([11]; 20 µM, data not shown): not affected | Minimum inhibitory concentration (MIC), S. mitis [12]: 25 µM (≈ 56.1 µg/mL) | Growth inhibition of co-cultured S. oralis by S. mutans stimulated with peptide (diameter of clear area) [13]: significantly inhibited the growth | Minimum inhibitory concentration (MIC), F. nucleatum [14]: >50 µM
